{
  "source": "patent US20140120060A1",
  "about": "“TREATMENT OF RHEUMATOID ARTHRITIS AND ASTHMA USING PI3 KINASE INHIBITORS” (INFINITY PHARMACEUTICALS, INC., priority 2012, published 2014)",
  "key": {"respiratory system": {"tested_on": "respiratory system", "assay": "Respiratory study in Sprague-Dawley rat", "settings": "male rats, single oral dose up to 350 mg/kg"}, "[1]": {"assay": "Embryo/fetal developmental toxicity study in rabbits", "settings": "female, rabbit, in vivo; pregnant rabbits, last day of dosing, 75 mg/kg/day; read-out: mean AUC0-24 hr at the NOAEL"}, "[2]": {"tested_on": "developing adjuvant arthritis", "assay": "Freund's complete adjuvant induced rat model of arthritis", "format": "in vivo", "excerpt": "Freund's complete adjuvant induced arthritis in the rat is an experimental model of polyarthritis that has been widely used for nonclinical testing of numerous anti-arthritic agents that are either under nonclinical or clinical investigation, or are currently used as therapeutics in this disease."}, "[3]": {"assay": "In vivo rat micronucleus assay"}},
  "data": [
    {"compound": "C[C@H](Nc1ncnc2[nH]cnc12)c1cc2cccc(Cl)c2c(=O)n1-c1ccccc1", "note": "[Compound 292]", "values": [
      {"measurement": "respiratory parameters (respiratory rate, tidal volume, minute volume)", "setting": "respiratory system", "result": "no Compound 292-related effects"},
      {"measurement": "AUC(0-t)", "setting": "[1]", "result": 66200, "unit": "ng·h/mL"},
      {"measurement": "reduction of final paw weights", "setting": "[2]; 5 mg/kg BID", "result": 30, "unit": "%"},
      {"measurement": "reduction of histopathologic bone resorption", "setting": "[2]; 5 mg/kg BID", "result": 72, "unit": "%"},
      {"measurement": "reduction of histopathologic inflammation", "setting": "[2]; 5 mg/kg BID", "result": 18, "unit": "%"},
      {"measurement": "inhibition of ankle diameter AUC (d7-14) increase", "setting": "[2]; 5 mg/kg BID PO days 5-14", "result": 24, "unit": "%"},
      {"measurement": "reduction of final paw weights", "setting": "[2]; 10 mg/kg QD", "result": 23, "unit": "%"},
      {"measurement": "reduction of histopathologic bone resorption", "setting": "[2]; 10 mg/kg QD", "result": 67, "unit": "%"},
      {"measurement": "reduction of histopathologic inflammation", "setting": "[2]; 10 mg/kg QD", "result": 15, "unit": "%"},
      {"measurement": "inhibition of ankle diameter AUC (d7-14) increase", "setting": "[2]; 10 mg/kg QD PO days 5-14", "result": 31, "unit": "%"},
      {"measurement": "reduction of final paw weights", "setting": "[2]; 50 mg/kg QD", "result": 98, "unit": "%"},
      {"measurement": "reduction of histopathologic bone resorption", "setting": "[2]; 50 mg/kg QD", "result": 100, "unit": "%"},
      {"measurement": "reduction of histopathologic inflammation", "setting": "[2]; 50 mg/kg QD", "result": 88, "unit": "%"},
      {"measurement": "inhibition of ankle diameter AUC (d7-14) increase", "setting": "[2]; 50 mg/kg QD PO days 5-14", "result": 95, "unit": "%"},
      {"measurement": "adverse effect in micronucleus assay", "setting": "[3]", "result": "no direct adverse effect"}
    ]}
  ]
}
